Tests used:
Format in all cases: in vivo
[1] = tested on: barnyardgrass (Echinochloa crus-galli); test: Test A preemergence, barnyardgrass; details: 0 to 100 scale
Text: (§1) Seeds of plant species selected from barnyardgrass (Echinochloa crus-galli), crabgrass (large crabgrass, Digitaria sanguinalis), kochia (Kochia scoparia), ragweed (common ragweed, Ambrosia elatior), morningglory (Ipomoea spp.), velvetleaf (Abutilon theophrasti), ryegrass, It. (Italian ryegrass, Lolium multiflorum), foxtail, giant (giant foxtail, Setaria faberii), wheat (Triticum aestivum), corn (Zea mays), and pigweed (Amaranthus retroflexus), were planted into a blend of loam soil and sand and treated preemergence with a directed soil spray using test chemicals formulated in a non-phytotoxic solvent mixture which included a surfactant. At the same time, plants selected from these crop and weed species and also blackgrass (Alopecurus myosuroides), and galium (catchweed bedstraw, Galium aparine), were planted in pots containing the same blend of loam soil and sand and treated with postemergence applications of test chemicals formulated in the same manner. Plants ranged in height from 2 to 10 cm and were in the one- to two-leaf stage for the postemergence treatment. Treated plants and untreated controls were maintained in a greenhouse for approximately 10 d, after which time all treated plants were compared to untreated controls and visually evaluated for injury. Plant response ratings, summarized in Table A, are based on a 0 to 100 scale where 0 is no effect and 100 is complete control. A dash (-) response means no test result.

kochia (Kochia scoparia) [2] = test: Test A preemergence, kochia; details: 0 to 100 scale
Text: as §1

[3] = tested on: ragweed (common ragweed, Ambrosia elatior); test: Test A preemergence, ragweed; details: 0 to 100 scale
Text: as §1

[4] = tested on: ryegrass, It. (Italian ryegrass, Lolium multiflorum); test: Test A preemergence, ryegrass, It.; details: 0 to 100 scale
Text: as §1

[5] = tested on: foxtail, giant (giant foxtail, Setaria faberii); test: Test A preemergence, foxtail, giant; details: 0 to 100 scale
Text: as §1

[6] = tested on: pigweed (Amaranthus retroflexus); test: Test A preemergence, pigweed; details: 0 to 100 scale
Text: as §1

[7] = tested on: barnyardgrass (Echinochloa crus-galli); test: Test A postemergence, barnyardgrass; details: 0 to 100 scale
Text: as §1

kochia (Kochia scoparia) [8] = test: Test A postemergence, kochia; details: 0 to 100 scale
Text: as §1

[9] = tested on: ragweed (common ragweed, Ambrosia elatior); test: Test A postemergence, ragweed; details: 0 to 100 scale
Text: as §1

[10] = tested on: ryegrass, It. (Italian ryegrass, Lolium multiflorum); test: Test A postemergence, ryegrass, It.; details: 0 to 100 scale
Text: as §1

[11] = tested on: foxtail, giant (giant foxtail, Setaria faberii); test: Test A postemergence, foxtail, giant; details: 0 to 100 scale
Text: as §1

[12] = tested on: wheat (Triticum aestivum); test: Test A postemergence, wheat; details: 0 to 100 scale
Text: as §1

corn (Zea mays) = test: Test A postemergence, corn; details: 0 to 100 scale
Text: as §1

[13] = tested on: pigweed (Amaranthus retroflexus); test: Test A postemergence, pigweed; details: 0 to 100 scale
Text: as §1

[14] = tested on: blackgrass (Alopecurus myosuroides); test: Test A postemergence, blackgrass; details: 0 to 100 scale
Text: as §1

[15] = tested on: galium (catchweed bedstraw, Galium aparine); test: Test A postemergence, galium; details: 0 to 100 scale
Text: as §1

[16] = tested on: barnyardgrass (Echinochloa crus-galli); test: Test B flooded paddy test, barnyardgrass; details: Flood, scale of 0 to 100 where 0 is no effect and 100 is complete control, 13 to 15 d
Experimental: (§2) Plant species in the flooded paddy test selected from rice (Oryza sativa), sedge, umbrella (small-flower umbrella sedge, Cyperus difformis), ducksalad (Heteranthera limosa), and barnyardgrass (Echinochloa crus-galli) were grown to the 2-leaf stage for testing. At time of treatment, test pots were flooded to 3 cm above the soil surface, treated by application of test compounds directly to the paddy water, and then maintained at that water depth for the duration of the test. Treated plants and controls were maintained in a greenhouse for 13 to 15 d, after which time all species were compared to controls and visually evaluated. Plant response ratings, summarized in Table B, are based on a scale of 0 to 100 where 0 is no effect and 100 is complete control. A dash (-) response means no test result.

[17] = tested on: ducksalad (Heteranthera limosa); test: Test B flooded paddy test, ducksalad; details: Flood, scale of 0 to 100 where 0 is no effect and 100 is complete control, 13 to 15 d
Experimental: as §2

rice (Oryza sativa) = test: Test B flooded paddy test, rice; details: Flood, scale of 0 to 100 where 0 is no effect and 100 is complete control, 13 to 15 d
Experimental: as §2

[18] = tested on: sedge, umbrella (small-flower umbrella sedge, Cyperus difformis); test: Test B flooded paddy test, sedge, umbrella; details: Flood, scale of 0 to 100 where 0 is no effect and 100 is complete control, 13 to 15 d
Experimental: as §2

O=C1NCC(Cc2ccccc2C(F)(F)F)C1C(=O)Nc1ccccc1C(F)(F)F (centres unmarked) [Compound 5]
Plant response rating, Barnyardgrass ([1]; 125 g ai/ha): 0
Plant response rating, Barnyardgrass ([1]; 500 g ai/ha): 0
Plant response rating, Kochia (kochia (Kochia scoparia) [2]; 125 g ai/ha): 0
Plant response rating, Kochia (kochia (Kochia scoparia) [2]; 500 g ai/ha): 0
Plant response rating, Ragweed ([3]; 125 g ai/ha): 0
Plant response rating, Ragweed ([3]; 500 g ai/ha): 0
Plant response rating, Ryegrass, It. ([4]; 125 g ai/ha): 0
Plant response rating, Ryegrass, It. ([4]; 500 g ai/ha): 0
Plant response rating, Foxtail, Giant ([5]; 125 g ai/ha): 0
Plant response rating, Foxtail, Giant ([5]; 500 g ai/ha): 0
Plant response rating, Pigweed ([6]; 125 g ai/ha): 0
Plant response rating, Pigweed ([6]; 500 g ai/ha): 0
Plant response rating, Barnyardgrass ([7]; 125 g ai/ha): 0
Plant response rating, Barnyardgrass ([7]; 500 g ai/ha): 0
Plant response rating, Kochia (kochia (Kochia scoparia) [8]; 125 g ai/ha): 0
Plant response rating, Kochia (kochia (Kochia scoparia) [8]; 500 g ai/ha): 0
Plant response rating, Ragweed ([9]; 125 g ai/ha): 0
Plant response rating, Ragweed ([9]; 500 g ai/ha): 0
Plant response rating, Ryegrass, It. ([10]; 125 g ai/ha): 0
Plant response rating, Ryegrass, It. ([10]; 500 g ai/ha): 0
Plant response rating, Foxtail, Giant ([11]; 125 g ai/ha): 0
Plant response rating, Foxtail, Giant ([11]; 500 g ai/ha): 0
Plant response rating, Wheat ([12]; 125 g ai/ha): 0
Plant response rating, Wheat ([12]; 500 g ai/ha): 0
Plant response rating, Corn (corn (Zea mays); 125 g ai/ha): 0
Plant response rating, Corn (corn (Zea mays); 500 g ai/ha): 0
Plant response rating, Pigweed ([13]; 125 g ai/ha): 0
Plant response rating, Pigweed ([13]; 500 g ai/ha): 0
Plant response rating, Blackgrass ([14]; 125 g ai/ha): 0
Plant response rating, Blackgrass ([14]; 500 g ai/ha): 0
Plant response rating, Galium ([15]; 125 g ai/ha): 0
Plant response rating, Galium ([15]; 500 g ai/ha): 0
Plant response rating, Barnyardgrass ([16]; 500 g ai/ha): 0
Plant response rating, Ducksalad ([17]; 500 g ai/ha): 0
Plant response rating, Rice (rice (Oryza sativa); 500 g ai/ha): 0
Plant response rating, Sedge, Umbrella ([18]; 500 g ai/ha): 0

O=C1NCC(/C=C/c2cccc(F)c2)C1C(=O)Nc1ccccc1F (centres unmarked) [Compound 24]
Plant response rating, Barnyardgrass ([1]; 125 g ai/ha): 30
Plant response rating, Barnyardgrass ([1]; 500 g ai/ha): 70
Plant response rating, Kochia (kochia (Kochia scoparia) [2]; 125 g ai/ha): 0
Plant response rating, Kochia (kochia (Kochia scoparia) [2]; 500 g ai/ha): 20
Plant response rating, Ragweed ([3]; 125 g ai/ha): 0
Plant response rating, Ragweed ([3]; 500 g ai/ha): 30
Plant response rating, Ryegrass, It. ([4]; 125 g ai/ha): 0
Plant response rating, Ryegrass, It. ([4]; 500 g ai/ha): 0
Plant response rating, Foxtail, Giant ([5]; 125 g ai/ha): 60
Plant response rating, Foxtail, Giant ([5]; 500 g ai/ha): 90
Plant response rating, Pigweed ([6]; 125 g ai/ha): 0
Plant response rating, Pigweed ([6]; 500 g ai/ha): 0
Plant response rating, Barnyardgrass ([7]; 125 g ai/ha): 0
Plant response rating, Barnyardgrass ([7]; 500 g ai/ha): 70
Plant response rating, Ragweed ([9]; 125 g ai/ha): 0
Plant response rating, Ragweed ([9]; 500 g ai/ha): 0
Plant response rating, Ryegrass, It. ([10]; 125 g ai/ha): 0
Plant response rating, Ryegrass, It. ([10]; 500 g ai/ha): 0
Plant response rating, Foxtail, Giant ([11]; 125 g ai/ha): 30
Plant response rating, Foxtail, Giant ([11]; 500 g ai/ha): 80
Plant response rating, Wheat ([12]; 125 g ai/ha): 0
Plant response rating, Wheat ([12]; 500 g ai/ha): 0
Plant response rating, Corn (corn (Zea mays); 125 g ai/ha): 0
Plant response rating, Corn (corn (Zea mays); 500 g ai/ha): 0
Plant response rating, Pigweed ([13]; 125 g ai/ha): 0
Plant response rating, Pigweed ([13]; 500 g ai/ha): 0
Plant response rating, Blackgrass ([14]; 125 g ai/ha): 0
Plant response rating, Blackgrass ([14]; 500 g ai/ha): 0
Plant response rating, Galium ([15]; 125 g ai/ha): 0
Plant response rating, Galium ([15]; 500 g ai/ha): 0
Plant response rating, Barnyardgrass ([16]; 250 g ai/ha): 70
Plant response rating, Ducksalad ([17]; 250 g ai/ha): 90
Plant response rating, Rice (rice (Oryza sativa); 250 g ai/ha): 0
Plant response rating, Sedge, Umbrella ([18]; 250 g ai/ha): 0

O=C1NCC(/C=C/c2ccc(F)cc2)C1C(=O)Nc1ccccc1F (centres unmarked) [Compound 27]
Plant response rating, Barnyardgrass ([1]; 125 g ai/ha): 0
Plant response rating, Barnyardgrass ([1]; 500 g ai/ha): 50
Plant response rating, Kochia (kochia (Kochia scoparia) [2]; 125 g ai/ha): 0
Plant response rating, Kochia (kochia (Kochia scoparia) [2]; 500 g ai/ha): 40
Plant response rating, Ragweed ([3]; 125 g ai/ha): 0
Plant response rating, Ragweed ([3]; 500 g ai/ha): 30
Plant response rating, Ryegrass, It. ([4]; 125 g ai/ha): 0
Plant response rating, Ryegrass, It. ([4]; 500 g ai/ha): 20
Plant response rating, Foxtail, Giant ([5]; 125 g ai/ha): 0
Plant response rating, Foxtail, Giant ([5]; 500 g ai/ha): 60
Plant response rating, Pigweed ([6]; 125 g ai/ha): 0
Plant response rating, Pigweed ([6]; 500 g ai/ha): 0
Plant response rating, Barnyardgrass ([7]; 125 g ai/ha): 0
Plant response rating, Barnyardgrass ([7]; 500 g ai/ha): 60
Plant response rating, Ragweed ([9]; 125 g ai/ha): 0
Plant response rating, Ragweed ([9]; 500 g ai/ha): 0
Plant response rating, Ryegrass, It. ([10]; 125 g ai/ha): 0
Plant response rating, Ryegrass, It. ([10]; 500 g ai/ha): 0
Plant response rating, Foxtail, Giant ([11]; 125 g ai/ha): 0
Plant response rating, Foxtail, Giant ([11]; 500 g ai/ha): 70
Plant response rating, Wheat ([12]; 125 g ai/ha): 0
Plant response rating, Wheat ([12]; 500 g ai/ha): 0
Plant response rating, Corn (corn (Zea mays); 125 g ai/ha): 0
Plant response rating, Corn (corn (Zea mays); 500 g ai/ha): 0
Plant response rating, Pigweed ([13]; 125 g ai/ha): 0
Plant response rating, Pigweed ([13]; 500 g ai/ha): 20
Plant response rating, Blackgrass ([14]; 125 g ai/ha): 0
Plant response rating, Blackgrass ([14]; 500 g ai/ha): 0
Plant response rating, Galium ([15]; 125 g ai/ha): 0
Plant response rating, Galium ([15]; 500 g ai/ha): 0
Plant response rating, Barnyardgrass ([16]; 250 g ai/ha): 0
Plant response rating, Ducksalad ([17]; 250 g ai/ha): 80
Plant response rating, Rice (rice (Oryza sativa); 250 g ai/ha): 0
Plant response rating, Sedge, Umbrella ([18]; 250 g ai/ha): 0
